System: 817829-284-R-J1-PDC complex spheroids, viability
Experiment: Anticancer human tumor 817829-284-R-J1-PDC patient-derived colon adenocarcinoma cell line growth inhibition [CLK]
Conditions: for IC50: curve of first compound; for viability, T/C: stronger effect = lower value
Description: A high-throughput screen of multi-cell type tumor spheroids was designed to identify active combinations of […] and targeted small molecules. Complex spheroids include a stromal component modeled by human endothelial cells (HUVEC) and fibroblasts modeled by human mesenchymal stem cells (MSCs). The concentration ranges selected for each drug and investigational agent were based upon clinically achievable concentrations if the clinical Cmax of the agent was known.
Compounds. The drugs and investigational agents: cirtuvivint (SM08502; NSC835563), CC-671 (NSC850746), vemurafenib (NSC761431), tapotoclax (NSC804041), sotorasib (NSC818433), adagrasib (NSC831453), MRTX-1133 (NSC836407), BAY2416964 (NSC825713), copanlisib (NSC816437), inavolisib (NSC800729), abemaciclib (NSC768073), osimertinib (NSC779217), entinostat (NSC756642), eltanexor (KPT-8602, NSC794443), venetoclax (NSC766270), ceralasertib (NSC777638), bortezomib (NSC756655), olaparib (NSC753686), talazoparib (NSC767125), alisertib (NSC759677), peposertib (NSC802822), gemcitabine (NSC613327), 5-fluorouracil (NSC19893), SN-38 (NSC673596), oxaliplatin (NSC266046), paclitaxel (NSC125973), and doxorubicin (NSC123127), were obtained from the National Cancer Institute (NCI) Developmental Therapeutics Program Chemical Repository. The FDA-approved anticancer drug set is available from the Developmental Therapeutics Program at https://dtp.cancer.gov/organization/dscb/obtaining/available plates.htm. […] The stock solutions were prepared in dimethyl sulfoxide (DMSO, Sigma-Aldrich, St. Louis, MO, cat. D2650), except for the platinum complexes which were prepared in saline (Quality Biological, Gaithersburg, MD, cat. 114-055-101), at 800-fold the tested concentration and stored at -70 degrees C prior to their use. All drugs and investigational agents were tested over a range starting from a high concentration at or near the clinical Cmax and decreasing in half-log increments. If the clinical Cmax for an agent had not been determined, the highest concentration tested was 10 microM.
Cell Culture. All cells were maintained in an incubator at 37 degrees C and 5% CO2 with 95% humidity. The PDC lines were cultured according to standard operating procedures established by the NCI PDMR. Briefly, all PDCs were thawed and cultured in Matrigel-coated flasks prepared with a working solution of 1X Ham's F-12 nutrient mix, without supplementation (Invitrogen, Waltham, MA, cat. 11765054), 100 U/mL penicillin-streptomycin (Invitrogen, cat. 15140122), and 2.5% Matrigel (Corning Inc., Corning, NY, cat. 354248) for the first three passages. The 947758-054-R-J2-PDC line was cultured in 6B/Colon 1A media, which includes advanced DMEM/F-12 (Thermo Fisher Scientific, cat. 12634028), 10 mM HEPES (Thermo Fisher Scientific, cat. 15630080), 1X GlutaMAX supplement (Thermo Fisher Scientific, cat. 35050061), 0.1 mg/mL primocin (InvivoGen, cat. ant-pm-2), 10% defined fetal bovine serum, heat inactivated (HyClone Laboratories Inc., cat. SH30070.03HI), 1.25 mM N-Acetyl-L-cysteine (Sigma-Aldrich, cat. A9165), 10 mM nicotinamide (Sigma-Aldrich, cat. N0636), 1X B-27 supplement (Thermo Fisher Scientific, cat. 17504044), 1X N-2 supplement (Thermo Fisher Scientific, cat. 17502048), and 10 microM Y-27632 dihydrochloride (Tocris Bioscience, cat. 1254). The 876862-298-R-J1-PDC was cultured in 6E media, which includes all 6B/Colon 1A media components plus 50% L-WRN conditioned media (ATCC, cat. CRL-3276), 50 ng/mL recombinant human EGF recombinant protein (hEGF; Thermo Fisher Scientific, cat. PHG0311), 10 ng/mL recombinant human fibroblast growth factor 10 (hGFG-10; PeproTech, cat. 100-26), 1 ng/mL recombinant human fibroblast growth factor 2 (hFGF-2; PeproTech, cat. 100-18B), and 1 µM prostaglandin E2 (PGE2; Tocris, cat. 2296). The 227483-062-R1-J1-PDC line was cultured in Panc media, containing all 6E components except hFGF-2, with the addition of 500 nM SB-431542 (Selleckchem, cat. S1067) and 10 nM gastrin (Tocris, cat. 3006). […]

[1] = second compound 0.0316 µM, first compound 0.0316 µM
[2] = second compound 0.0316 µM, first compound 0.1 µM
[3] = second compound 0.0316 µM, first compound 0.316 µM
[4] = second compound 0.0316 µM, first compound 1 µM
[5] = second compound 0.0316 µM, first compound 3.16 µM
[6] = second compound 0.0316 µM, first compound 10 µM
[7] = second compound 0.1 µM, first compound 0.0316 µM
[8] = second compound 0.1 µM, first compound 0.1 µM
[9] = second compound 0.1 µM, first compound 0.316 µM
[10] = second compound 0.1 µM, first compound 1 µM
[11] = second compound 0.1 µM, first compound 3.16 µM
[12] = second compound 0.1 µM, first compound 10 µM
[13] = second compound 0.316 µM, first compound 0.0316 µM
[14] = second compound 0.316 µM, first compound 0.1 µM
[15] = second compound 0.316 µM, first compound 0.316 µM
[16] = second compound 0.316 µM, first compound 1 µM
[17] = second compound 0.316 µM, first compound 3.16 µM
[18] = second compound 0.316 µM, first compound 10 µM
[19] = second compound 1 µM, first compound 0.0316 µM
[20] = second compound 1 µM, first compound 0.1 µM
[21] = second compound 1 µM, first compound 0.316 µM
[22] = second compound 1 µM, first compound 1 µM
[23] = second compound 1 µM, first compound 3.16 µM
[24] = second compound 1 µM, first compound 10 µM
[25] = second compound 3.16 µM, first compound 0.0316 µM
[26] = second compound 3.16 µM, first compound 0.1 µM
[27] = second compound 3.16 µM, first compound 0.316 µM
[28] = second compound 3.16 µM, first compound 1 µM
[29] = second compound 3.16 µM, first compound 3.16 µM
[30] = second compound 3.16 µM, first compound 10 µM
[31] = second compound 10 µM, first compound 0.0316 µM
[32] = second compound 10 µM, first compound 0.1 µM
[33] = second compound 10 µM, first compound 0.316 µM
[34] = second compound 10 µM, first compound 1 µM
[35] = second compound 10 µM, first compound 3.16 µM
[36] = second compound 10 µM, first compound 10 µM
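Further: spheroids exposed to the agents for seven days before readout.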

C=CC(=O)N1CCN(c2nc(=O)n(-c3c(C)ccnc3C(C)C)c3nc(-c4c(O)cccc4F)c(F)cc23)C(C)C1 (stereo unspecified) + CN1CCN(c2cc(C(=O)Nc3cc4cc(-c5cnn(C)c5)ccc4cn3)ccn2)CC1
IC50 (second compound 0.0316 µM): 3090 nM
IC50 (second compound 0.1 µM): < 31.6 nM
IC50 (second compound 0.316 µM): < 31.6 nM
IC50 (second compound 1 µM): < 31.6 nM
IC50 (second compound 3.16 µM): < 31.6 nM
IC50 (second compound 10 µM): < 31.6 nM
viability, T/C [1]: 75.7%
viability, T/C [2]: 70.6%
viability, T/C [3]: 60.9%
viability, T/C [4]: 76.9%
viability, T/C [5]: 49.6%
viability, T/C [6]: 32.2%
viability, T/C [7]: 24.9%
viability, T/C [8]: 25.4%
viability, T/C [9]: 22.4%
viability, T/C [10]: 22.8%
viability, T/C [11]: 16.1%
viability, T/C [12]: 10.7%
viability, T/C [13]: 2.69%
viability, T/C [14]: 2.73%
viability, T/C [15]: 3%
viability, T/C [16]: 3.05%
viability, T/C [17]: 3.47%
viability, T/C [18]: 1.56%
viability, T/C [19]: 0.15%
viability, T/C [20]: 0.15%
viability, T/C [21]: 0.22%
viability, T/C [22]: 0.15%
viability, T/C [23]: 0.1%
viability, T/C [24]: 0.16%
viability, T/C [25]: 0.16%
viability, T/C [26]: 0.28%
viability, T/C [27]: 0.2%
viability, T/C [28]: 0.16%
viability, T/C [29]: 0.51%
viability, T/C [30]: 0.15%
viability, T/C [31]: 0.08%
viability, T/C [32]: 0.11%
viability, T/C [33]: 0.12%
viability, T/C [34]: 0.13%
viability, T/C [35]: 0.12%
viability, T/C [36]: 0.13%

CCCS(=O)(=O)Nc1ccc(F)c(C(=O)c2c[nH]c3ncc(-c4ccc(Cl)cc4)cc23)c1F + CN1CCN(c2cc(C(=O)Nc3cc4cc(-c5cnn(C)c5)ccc4cn3)ccn2)CC1
IC50 (second compound 0.0316 µM): < 31.6 nM
IC50 (second compound 0.1 µM): < 31.6 nM
IC50 (second compound 0.316 µM): < 31.6 nM
IC50 (second compound 1 µM): < 31.6 nM
IC50 (second compound 3.16 µM): < 31.6 nM
IC50 (second compound 10 µM): < 31.6 nM
viability, T/C [1]: 53.5%
viability, T/C [2]: 41.8%
viability, T/C [3]: 39.8%
viability, T/C [4]: 43.8%
viability, T/C [5]: 35.6%
viability, T/C [6]: 18.4%
viability, T/C [7]: 19%
viability, T/C [8]: 17.5%
viability, T/C [9]: 14.2%
viability, T/C [10]: 11.8%
viability, T/C [11]: 12.2%
viability, T/C [12]: 3.08%
viability, T/C [13]: 1.39%
viability, T/C [14]: 1.67%
viability, T/C [15]: 1.88%
viability, T/C [16]: 1.17%
viability, T/C [17]: 1.2%
viability, T/C [18]: 0.66%
viability, T/C [19]: 0.09%
viability, T/C [20]: 0.11%
viability, T/C [21]: 0.15%
viability, T/C [22]: 0.09%
viability, T/C [23]: 0.09%
viability, T/C [24]: 0.08%
viability, T/C [25]: 0.09%
viability, T/C [26]: 0.18%
viability, T/C [27]: 0.1%
viability, T/C [28]: 0.2%
viability, T/C [29]: 0.13%
viability, T/C [30]: 0.09%
viability, T/C [31]: 0.06%
viability, T/C [32]: 0.08%
viability, T/C [33]: 0.1%
viability, T/C [34]: 0.18%
viability, T/C [35]: 0.21%
viability, T/C [36]: 0.17%

COC1C=CCC(C)C(C)S(=O)(=O)NC(=O)c2ccc3c(c2)N(CC2CCC21)CC1(CCCc2cc(Cl)ccc21)CO3 (stereo unspecified) + CN1CCN(c2cc(C(=O)Nc3cc4cc(-c5cnn(C)c5)ccc4cn3)ccn2)CC1
IC50 (second compound 0.0316 µM): 1410 nM
IC50 (second compound 0.1 µM): < 31.6 nM
IC50 (second compound 0.316 µM): < 31.6 nM
IC50 (second compound 1 µM): < 31.6 nM
IC50 (second compound 3.16 µM): < 31.6 nM
IC50 (second compound 10 µM): < 31.6 nM
viability, T/C [1]: 52.5%
viability, T/C [2]: 70%
viability, T/C [3]: 51.2%
viability, T/C [4]: 63.3%
viability, T/C [5]: 28.2%
viability, T/C [6]: 7.26%
viability, T/C [7]: 21.4%
viability, T/C [8]: 18.1%
viability, T/C [9]: 16.3%
viability, T/C [10]: 12.3%
viability, T/C [11]: 5.31%
viability, T/C [12]: 2.6%
viability, T/C [13]: 1.91%
viability, T/C [14]: 1.47%
viability, T/C [15]: 1.45%
viability, T/C [16]: 1.31%
viability, T/C [17]: 1.5%
viability, T/C [18]: 0.95%
viability, T/C [19]: 0.08%
viability, T/C [20]: 0.21%
viability, T/C [21]: 0.16%
viability, T/C [22]: 0.07%
viability, T/C [23]: 0.35%
viability, T/C [24]: 0.05%
viability, T/C [25]: 0.15%
viability, T/C [26]: 0.16%
viability, T/C [27]: 0.23%
viability, T/C [28]: 0.46%
viability, T/C [29]: 0.28%
viability, T/C [30]: 0.08%
viability, T/C [31]: 0.48%
viability, T/C [32]: 0.13%
viability, T/C [33]: 0.19%
viability, T/C [34]: 0.31%
viability, T/C [35]: 0.37%
viability, T/C [36]: 0.17%

Reference: PubChem BioAssay AID2060599 (Molecular Pharmacology Branch, DTP, NCI, 2025)
